Data on 29 molecules can be found in patent publication US9856262B2, “Analogues of 4H-pyrazolo[1,5-a] benzimidazole compound as PARP inhibitors” (HUBEI BIO-PHARMACEUTICAL INDUSTRIAL TECHNOLOGICAL INSTITUTE …, priority 2014, dated 2018).

One assay deals with T1, PARP-1 (Homo sapiens, UniProt P09874).
T1 construct: purchased
Briefly: PARP enzymatic assay (HT Universal Colorimetric PARP1 Assay Kit). The class given is biochemical. As to conditions: read-out: PARP-1 enzymatic inhibition IC50. The method, boiled down:
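Inhibition of PARP1 was measured with the HT Universal Colorimetric PARP1 Assay Kit. A 96-well plate was coated with histone proteins overnight at 4° C, washed with PBST, and blocked for 30 min at room temperature. Test compound and 20 μl of PARP1 (1 nM) were then added and incubated. Streptavidin-HRP (1:50) and chemiluminescent HRP substrate were added, and the signal was read on an Envision microplate reader.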

A further assay deals with HCC1937 cells. Description: Cellular PARylation assay. As to conditions: Homo sapiens; HCC1937 cells, compound 30 min then 1 mM H2O2 10 min; read-out: cellular PARylation EC50. In kind it is cell-based. The method, boiled down:
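HCC1937 cells pretreated 30 min with compound, then stimulated with 1 mM H2O2 for 10 min. Fixed cells immunostained with anti-PAR 10H and FITC secondary, with DAPI counterstain; fluorescence read on a plate reader.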

T1 sequence (P09874 whole entry): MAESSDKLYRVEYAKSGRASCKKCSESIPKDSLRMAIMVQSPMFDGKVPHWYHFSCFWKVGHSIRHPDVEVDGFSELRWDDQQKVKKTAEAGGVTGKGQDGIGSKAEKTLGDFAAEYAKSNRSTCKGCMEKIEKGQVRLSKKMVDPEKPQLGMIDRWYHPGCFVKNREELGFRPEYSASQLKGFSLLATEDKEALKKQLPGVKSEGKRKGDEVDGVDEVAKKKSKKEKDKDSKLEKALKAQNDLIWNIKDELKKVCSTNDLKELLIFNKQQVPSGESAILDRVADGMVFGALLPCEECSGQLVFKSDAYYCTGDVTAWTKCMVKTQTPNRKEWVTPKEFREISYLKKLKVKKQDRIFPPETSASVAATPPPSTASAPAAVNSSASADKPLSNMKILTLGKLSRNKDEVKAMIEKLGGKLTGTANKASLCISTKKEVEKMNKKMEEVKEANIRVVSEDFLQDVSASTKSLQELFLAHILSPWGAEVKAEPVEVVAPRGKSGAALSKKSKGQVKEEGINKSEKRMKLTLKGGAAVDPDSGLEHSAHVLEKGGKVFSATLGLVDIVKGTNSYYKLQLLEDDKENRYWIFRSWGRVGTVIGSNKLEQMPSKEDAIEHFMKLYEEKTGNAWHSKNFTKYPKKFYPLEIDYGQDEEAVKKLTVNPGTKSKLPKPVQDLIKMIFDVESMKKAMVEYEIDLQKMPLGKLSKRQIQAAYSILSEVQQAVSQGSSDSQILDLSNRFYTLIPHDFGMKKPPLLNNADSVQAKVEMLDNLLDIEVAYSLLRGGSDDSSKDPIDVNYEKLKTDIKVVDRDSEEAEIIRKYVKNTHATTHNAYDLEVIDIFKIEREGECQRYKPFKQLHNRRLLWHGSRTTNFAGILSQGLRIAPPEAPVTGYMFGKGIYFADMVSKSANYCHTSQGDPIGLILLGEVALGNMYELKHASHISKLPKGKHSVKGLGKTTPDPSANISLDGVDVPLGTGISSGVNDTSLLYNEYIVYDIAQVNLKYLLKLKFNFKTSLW

Take `CCOC(=O)C1CC1CN1CCC(C)(c2cnn3c2[nH]c2cc(F)cc(C(N)=O)c23)CC1` (stereo not shown) [Example 80, ethyl 2-((4-(8-carbamoyl-6-fluoro-4H-benzo[4,5]imidazo[1,2-b]pyrazol-3-yl)-4-methylpiperidin-1-yl)methyl)cyclopropanecarboxylate]: the IC50 on PARP-1 lay within 1 to 100 nM. In the assay with HCC1937 cells, the EC50 lay in the range of 1 to 100 nM.
In the case of `CN1CC(CN2CCC(C)(c3cnn4c3[nH]c3cc(F)cc(C(N)=O)c34)CC2)C1` [Example 79, 6-fluoro-3-(4-methyl-1-((1-methylazetidin-3-yl)methyl)piperidin-4-yl)-4H-benzo[4,5]imidazo[1,2-b]pyrazole-8-carboxamide], the IC50 at PARP-1 lay in the range of 1 to 100 nM. Also, the EC50 in the assay with HCC1937 cells fell in the range of 1 to 100 nM.
Regarding `CN1CCC(c2cnn3c2[nH]c2cc(F)cc(C(N)=O)c23)C1` (stereo not shown) [Example 20, 6-fluoro-3-(1-methylpyrrolidin-3-yl)-4H-benzo[4,5]imidazo[1,2-b]pyrazole-8-carboxamide], at PARP-1, the IC50 lay within 1 to 100 nM. The EC50 with HCC1937 cells lay in the range of 1 to 100 nM.
Turning to `CC1(c2cnn3c2[nH]c2cc(F)cc(C(N)=O)c23)CCN(CC2(N)CC2)C1` (stereo not shown) [Example 100, 3-(1-((1-aminocyclopropyl)methyl)-3-methylpyrrolidin-3-yl)-6-fluoro-4H-benzo[4,5]imidazo[1,2-b]pyrazole-8-carboxamide], the IC50 at PARP-1 is 1 to 100 nM. In the assay with HCC1937 cells, the half-maximal effective concentration (EC50) fell in the range of 1 to 100 nM.
Regarding `CC1(c2cnn3c2[nH]c2cc(F)cc(C(N)=O)c23)CCN(CC2(S(C)(=O)=O)CC2)CC1` [Example 73, 6-fluoro-3-(4-methyl-1-((1-(methylsulfonyl)cyclopropyl)methyl)piperidin-4-yl)-4H-benzo[4,5]imidazo[1,2-b]pyrazole-8-carboxamide], the IC50 on PARP-1 fell in the range of 1 to 100 nM. Besides, the EC50 in the assay with HCC1937 cells fell in the range of 1 to 100 nM.
With `CC1(c2cnn3c2[nH]c2cc(F)cc(C(N)=O)c23)CCN(CC(F)(F)F)C1` (stereo not shown) [Example 97, 6-fluoro-3-(3-methyl-1-(2,2,2-trifluoroethyl)pyrrolidin-3-yl)-4H-benzo[4,5]imidazo[1,2-b]pyrazole-8-carboxamide], on PARP-1, the IC50 was in the range of 1 to 100 nM. The EC50 in the assay on HCC1937 cells was in the range of 101 to 1000 nM.
`CCN1CCC(N2CCC(C)(c3cnn4c3[nH]c3cc(F)cc(C(N)=O)c34)CC2)CC1` [Example 86, 3-(1′-ethyl-4-methyl-[1,4′-bipiperidin]-4-yl)-6-fluoro-4H-benzo[4,5]imidazo[1,2-b]pyrazole-8-carboxamide]: the IC50 on PARP-1 lay in the range of 1 to 100 nM. Further, the EC50 in the assay with HCC1937 cells was 1 to 100 nM.
With `Cc1nn2c([nH]c3cc(F)cc(C(N)=O)c32)c1C1(C)CCN(CC(C)(C)O)CC1` [Example 116, 6-fluoro-3-(1-(2-hydroxy-2-methylpropyl)-4-methylpiperidin-4-yl)-2-methyl-4H-benzo[4,5]imidazo[1,2-b]pyrazole-8-carboxamide], the IC50 on PARP-1 lay within 1 to 100 nM. In addition, the EC50 in the assay with HCC1937 cells lay within 1 to 100 nM.
Turning to `Cc1nn2c([nH]c3cc(F)cc(C(N)=O)c32)c1C1(C)CCN(CC(C)C)CC1` [Example 113, 6-fluoro-3-(1-isobutyl-4-methylpiperidin-4-yl)-2-methyl-4H-benzo[4,5]imidazo[1,2-b]pyrazole-8-carboxamide], the IC50 on PARP-1 lay within 1 to 100 nM. The EC50 with HCC1937 cells lay within 1 to 100 nM.
Turning to `CC1(c2cnn3c2[nH]c2cc(F)cc(C(N)=O)c23)CCN(CC2CC2)C1` (stereo not shown) [Example 93, 3-(1-(cyclopropylmethyl)-3-methylpyrrolidin-3-yl)-6-fluoro-4H-benzo[4,5]imidazo[1,2-b]pyrazole-8-carboxamide], the IC50 on PARP-1 is 1 to 100 nM. Further, the EC50 in the assay with HCC1937 cells was in the range of 1 to 100 nM.
`CCN1CC2C(C1)C2c1cnn2c1[nH]c1cc(F)cc(C(N)=O)c12` (stereo not shown) [Example 34, 3-(3-ethyl-3-azabicyclo[3.1.0]hexan-6-yl)-6-fluoro-4H-benzo[4,5]imidazo[1,2-b]pyrazole-8-carboxamide]: the IC50 on PARP-1 lay within 1 to 100 nM. In the assay on HCC1937 cells, the EC50 is 101 to 1000 nM.
Turning to `NCCN1CCC(c2cnn3c2[nH]c2cc(F)cc(C(N)=O)c23)CC1` [Example 13, 3-(1-(2-aminoethyl)piperidin-4-yl)-6-fluoro-4H-benzo[4,5]imidazo[1,2-b]pyrazole-8-carboxamide], on PARP-1, the IC50 was in the range of 1 to 100 nM. For the same molecule, the EC50 in the assay on HCC1937 cells fell in the range of 101 to 1000 nM.
For `NC(=O)c1cc(F)cc2[nH]c3c(C4(CO)CCN(CC5CC5)CC4)cnn3c12` [Example 109, 3-(1-(cyclopropylmethyl)-4-(hydroxymethyl)piperidin-4-yl)-6-fluoro-4H-benzo[4,5]imidazo[1,2-b]pyrazole-8-carboxamide], the 50% inhibitory concentration (IC50) on PARP-1 was 1 to 100 nM. The EC50 with HCC1937 cells lay in the range of 101 to 1000 nM.
Taken in the same sequence, the figures for `CC1(c2cnn3c2[nH]c2cc(F)cc(C(N)=O)c23)CCN(CC2(O)CC2)CC1` [Example 70, 6-fluoro-3-(1-((1-hydroxycyclopropyl)methyl)-4-methylpiperidin-4-yl)-4H-benzo[4,5]imidazo[1,2-b]pyrazole-8-carboxamide] were 1 to 100 nM and 1 to 100 nM.
On the same counts, the results for `CC1(c2cnn3c2[nH]c2cc(F)cc(C(N)=O)c23)CCN(CCF)C1` (stereo not shown) [Example 95, 6-fluoro-3-(1-(2-fluoroethyl)-3-methylpyrrolidin-3-yl)-4H-benzo[4,5]imidazo[1,2-b]pyrazole-8-carboxamide] are 1 to 100 nM and 1 to 100 nM.
On the same counts, the results for `CC1(CN2CCC(C)(c3cnn4c3[nH]c3cc(F)cc(C(N)=O)c34)CC2)COC1` [Example 71] are 1 to 100 nM and 1 to 100 nM.
As for `CC1(c2cnn3c2[nH]c2cc(F)cc(C(N)=O)c23)CCN(CC2CC2(F)F)C1` (stereo not shown) [Example 96, 3-(1-((2,2-difluorocyclopropyl)methyl)-3-methylpyrrolidin-3-yl)-6-fluoro-4H-benzo[4,5]imidazo[1,2-b]pyrazole-8-carboxamide], the IC50 at PARP-1 lay in the range of 1 to 100 nM. The EC50 in the assay with HCC1937 cells is 1 to 100 nM.
`NCc1cnn2c1[nH]c1cc(F)cc(C(N)=O)c12` [Example 39, 3-(aminomethyl)-6-fluoro-4H-benzo[4,5]imidazo[1,2-b]pyrazole-8-carboxamide]: at PARP-1, the IC50 was 1 to 100 nM. Besides, in the assay on HCC1937 cells, the EC50 was 101 to 1000 nM.
For the molecule `NC(=O)c1cc(F)cc2[nH]c3c(C4CCN(C(=O)C5CC5)CC4)cnn3c12` [Example 8, 3-(1-(cyclopropylcarbonyl)piperidin-4-yl)-6-fluoro-4H-benzo[4,5]imidazo[1,2-b]pyrazole-8-carboxamide], at PARP-1, the IC50 lay in the range of 1 to 100 nM. Besides, in the assay on HCC1937 cells, the EC50 lay in the range of 101 to 1000 nM.
Regarding `CNCc1ccc(-c2cnn3c2[nH]c2cc(F)cc(C(N)=O)c23)cc1` [Example 43, 6-fluoro-3-(4-((methylamino)methyl)phenyl)-4H-benzo[4,5]imidazo[1,2-b]pyrazole-8-carboxamide], the IC50 on PARP-1 was in the range of 1 to 100 nM. Also, the EC50 in the assay with HCC1937 cells lay within 101 to 1000 nM.
For the molecule `CN1CC2CC2(c2cnn3c2[nH]c2cc(F)cc(C(N)=O)c23)C1` (stereo not shown) [Example 28, 6-fluoro-3-(3-methyl-3-azabicyclo[3.1.0]hexan-1-yl)-4H-benzo[4,5]imidazo[1,2-b]pyrazole-8-carboxamide], the IC50 on PARP-1 lay in the range of 1 to 100 nM. For the same molecule, the concentration giving a half-maximal response (EC50) in the assay on HCC1937 cells was 1 to 100 nM.
On to `CC(C)N1CC2CC2(c2cnn3c2[nH]c2cc(F)cc(C(N)=O)c23)C1` (stereo not shown) [Example 32, 6-fluoro-3-(3-isopropyl-3-azabicyclo[3.1.0]hexan-1-yl)-4H-benzo[4,5]imidazo[1,2-b]pyrazole-8-carboxamide], for which the IC50 at PARP-1 fell in the range of 1 to 100 nM. In the assay on HCC1937 cells, the EC50 lay in the range of 1 to 100 nM.
`NC(=O)c1cc(F)cc2[nH]c3c(C4CCN(C5COC5)CC4)cnn3c12` [Example 11, 6-fluoro-3-(1-(oxetan-3-yl)piperidin-4-yl)-4H-benzo[4,5]imidazo[1,2-b]pyrazole-8-carboxamide]: the IC50 at PARP-1 was 1 to 100 nM. Moreover, the EC50 in the assay on HCC1937 cells was 101 to 1000 nM.
On to `CCN1CCC(C)(c2cnn3c2[nH]c2cc(F)cc(C(N)=O)c23)C1` (stereo not shown) [Example 90, 3-(1-ethyl-3-methylpyrrolidin-3-yl)-6-fluoro-4H-benzo[4,5]imidazo[1,2-b]pyrazole-8-carboxamide], for which the IC50 at PARP-1 lay within 1 to 100 nM. Further, the EC50 in the assay on HCC1937 cells was in the range of 1 to 100 nM.
For `NC(=O)c1cc(F)cc2[nH]c3c(-c4ccc(C5CCCNC5)cc4)cnn3c12` (stereo not shown) [Example 46, 6-fluoro-3-(4-(piperidin-3-yl)phenyl)-4H-benzo[4,5]imidazo[1,2-b]pyrazole-8-carboxamide], the IC50 at PARP-1 lay within 101 to 1000 nM. In the assay on HCC1937 cells, the EC50 is > 1000 nM.
With `CC1(c2cnn3c2[nH]c2cc(F)cc(C(N)=O)c23)CCN(CC2(N)CC2)CC1` [Example 67, 3-(1-((1-aminocyclopropyl)methyl)-4-methylpiperidin-4-yl)-6-fluoro-4H-benzo[4,5]imidazo[1,2-b]pyrazole-8-carboxamide], the IC50 at PARP-1 is 1 to 100 nM. Moreover, in the assay on HCC1937 cells, the EC50 lay in the range of 1 to 100 nM.
Take `NC(=O)c1cc(F)cc2[nH]c3c(C4CCN(CCO)CC4)cnn3c12` [Example 16, 6-fluoro-3-(1-(2-hydroxyethyl)piperidin-4-yl)-4H-benzo[4,5]imidazo[1,2-b]pyrazole-8-carboxamide]: the IC50 on PARP-1 lay in the range of 1 to 100 nM. Further, the EC50 with HCC1937 cells was 1 to 100 nM.
For `CCN1CCC(CN2CCC(C)(c3cnn4c3[nH]c3cc(F)cc(C(N)=O)c34)CC2)CC1` [Example 78, 3-(1-((1-ethylpiperidin-4-yl)methyl)-4-methylpiperidin-4-yl)-6-fluoro-4H-benzo[4,5]imidazo[1,2-b]pyrazole-8-carboxamide], the IC50 at PARP-1 is 1 to 100 nM. In addition, in the assay on HCC1937 cells, the EC50 is 1 to 100 nM.
On to `NC(=O)c1cc(F)cc2[nH]c3c(C4CC(O)CN4)cnn3c12` (stereo not shown) [Example 36, 6-fluoro-3-(4-hydroxypyrrolidin-2-yl)-4H-benzo[4,5]imidazo[1,2-b]pyrazole-8-carboxamide], for which the IC50 on PARP-1 lay in the range of 1 to 100 nM. In addition, in the assay on HCC1937 cells, the EC50 is 101 to 1000 nM.
